Legend:
[1] = Inhibition of platelet aggregation using Adenosine diphosphate (ADP) as activating agent in rabbit platelet rich plasma (PRP)
[2] = Inhibition of platelet aggregation using adenosine diphosphate (ADP) as activating agent in human platelet rich plasma (PRP)
[3] = Inhibition of platelet aggregation using Adenosine diphosphate (ADP) as activating agent in rabbit platelet rich plasma (PRP); remark: listed apart in the source
[4] = Inhibition of platelet aggregation using adenosine diphosphate (ADP) as activating agent in human platelet rich plasma PRP
[5] = Inhibition of ADP-induced platelet aggregation in rabbit platelet rich plasma (PRP)
[6] = biological target: P2Y purinoceptor 12 (Homo sapiens, UniProt Q9H244); test: Inhibition of platelet aggregation using adenosine diphosphate (ADP) as activating agent in human platelet rich plasma (PRP)
P2Y purinoceptor 12, sequence (Q9H244 whole entry): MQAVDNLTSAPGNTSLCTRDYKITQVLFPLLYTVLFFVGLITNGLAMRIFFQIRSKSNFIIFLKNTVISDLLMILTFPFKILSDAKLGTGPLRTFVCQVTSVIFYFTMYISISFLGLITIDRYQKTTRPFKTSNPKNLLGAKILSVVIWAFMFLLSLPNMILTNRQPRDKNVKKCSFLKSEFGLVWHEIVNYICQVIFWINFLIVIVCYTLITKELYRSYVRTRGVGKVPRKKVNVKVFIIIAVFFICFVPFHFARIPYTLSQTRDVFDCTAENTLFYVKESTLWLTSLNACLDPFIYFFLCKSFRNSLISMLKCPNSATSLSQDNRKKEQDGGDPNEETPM

Row | SMILES | EC50 [1] [nM] | EC50 [2] [nM] | EC50 [3] [nM] | also measured
1 | COC(=O)CCCCc1ccc2nc3[nH]c(=O)[nH]c3cc2c1 |  | 3000 | 430 | 
2 | Cn1c(=O)[nH]c2nc3ccc(OCCCCC(=O)O)cc3cc21 | > 100000 |  |  | 
3 | O=C(CCCOc1ccc2nc3[nH]c(=O)[nH]c3cc2c1)NC12C[C@H]3C[C@@H](C1)C[C@@H](C2)C3 |  | 20 | 120 | 
4 | CN(C(=O)CCCOc1ccc2c(c1)CN1CC(=O)NC1=N2)C1CCCCC1 |  | 440 | 100 | 
5 | O=c1[nH]c2cc3cc(OCCCc4nnn[nH]4)ccc3nc2[nH]1 |  | > 100000 | 6320 | 
6 | N#CCCCOc1ccc2nc3[nH]c(=O)[nH]c3cc2c1 |  | 600 | 180 | 
7 | Cn1c(=O)[nH]c2cc3cc(OCCCC(=O)O)ccc3nc21 |  | > 26500 | 1660 | 
8 | O=c1[nH]c2cc3cc(OCCCCS(=O)(=O)c4ccccc4)ccc3nc2[nH]1 |  | 10 | 180 | 
9 | COC(=O)CCCCOc1ccc2nc3[nH]c(=O)n(C)c3cc2c1 | 9110 |  |  | 
10 | Cn1c(=O)[nH]c2nc3ccc(OCCCS(=O)(=O)c4ccccc4)cc3cc21 | 50300 |  |  | 
11 | Cn1c(=O)[nH]c2nc3ccc(OCCCC(=O)N4CCCCC4)cc3cc21 | 10900 |  |  | 
12 | CC(O)CCCOc1ccc2nc3[nH]c(=O)[nH]c3cc2c1 (stereo unspecified) |  | 100 |  | EC50 [5]: 520 nM
13 | CCOC(=O)CCc1ccc2nc3[nH]c(=O)[nH]c3cc2c1 | 440 |  |  | 
14 | O=c1[nH]c2cc3cc(CCCO)ccc3nc2[nH]1 | 2470 |  |  | 
15 | O=C(CCCOc1ccc2nc3[nH]c(=O)[nH]c3cc2c1)N1CCCCC1 |  |  |  | EC50 [6]: 130 nM
16 | CCOCCOc1ccc2nc3[nH]c(=O)[nH]c3cc2c1 | 4840 |  |  | 

Row | SMILES | EC50 [1] [nM] | EC50 [2] [nM] | EC50 [3] [nM] | also measured
17 | Cn1c(=O)[nH]c2nc3ccc(OCCCC(=O)O)cc3cc21 | > 106000 |  |  | 
18 | CCOC(=O)COc1ccc2nc3[nH]c(=O)[nH]c3cc2c1 | 24300 |  |  | 
19 | CCOC(=O)C=Cc1ccc2nc3[nH]c(=O)[nH]c3cc2c1 | 440 |  |  | 
20 | O=C(O)CCCCc1ccc2nc3[nH]c(=O)[nH]c3cc2c1 |  | > 112000 | 63100 | 
21 | O=c1[nH]c2cc3cc(OCCCS(=O)(=O)c4ccccc4)ccc3nc2[nH]1 | 390 |  |  | 
22 | O=c1[nH]c2cc3cc(CCCCCO)ccc3nc2[nH]1 | 2950 |  |  | 
23 | COC(=O)CCCOc1ccc2nc3c(cc2c1)[nH]c(=O)n3C | 360 | 29800 |  | 
24 | O=C(CCCCc1ccc2nc3[nH]c(=O)[nH]c3cc2c1)NC12C[C@H]3C[C@@H](C1)C[C@@H](C2)C3 |  | 5260 | 960 | 
25 | O=C(O)CCCOc1ccc2c(c1)CN1CC(=O)NC1=N2 |  | > 100000 | 6910 | 
26 | COC(=O)C=CC=Cc1ccc2nc3[nH]c(=O)[nH]c3cc2c1 | 2690 |  |  | 
27 | CC(=O)OCCOc1ccc2nc3[nH]c(=O)[nH]c3cc2c1 | 870 |  |  | 
28 | O=C(O)COc1ccc2nc3[nH]c(=O)[nH]c3cc2c1 | 1910 |  |  | 
29 | O=C(CCCCc1ccc2nc3[nH]c(=O)[nH]c3cc2c1)N1CCCCC1 | 420 | 15500 |  | 
30 | O=c1[nH]c2cc3cc(OCCCCc4nnn[nH]4)ccc3nc2[nH]1 | 5400 | 51000 |  | 
31 | COC(=O)CCCOc1ccc2nc3c(cc2c1)n(C)c(=O)n3C | > 87500 |  |  | 

The next lines start with results.

Row | EC50 [1] [nM] | EC50 [2] [nM] | EC50 [3] [nM] | SMILES | also measured
32 | 1400 |  |  | CC(=O)CCCOc1ccc2nc3[nH]c(=O)[nH]c3cc2c1 | 
33 |  | 33000 | 520 | CN(C(=O)CCCOc1ccc2nc3c(cc2c1)[nH]c(=O)n3C)C1CCCCC1 | 
34 | 26700 |  |  | CN(C(=O)CCCOc1ccc2nc3c(cc2c1)n(C)c(=O)n3C)C1CCCCC1 | 
35 |  |  | 66 | COC(=O)CCCOc1ccc2nc3[nH]c(=O)[nH]c3cc2c1 | EC50 [4]: 83 nM
36 | 6 | 0.7 |  | COC(=O)CN(C(=O)CCCOc1ccc2nc3[nH]c(=O)[nH]c3cc2c1)C1CCCCC1 | 
37 | 1330 | 71600 |  | CNC(=O)CCCOc1ccc2nc3[nH]c(=O)[nH]c3cc2c1 | 
38 | > 106000 | > 106000 |  | O=C(O)CCCCOc1ccc2nc3[nH]c(=O)[nH]c3cc2c1 | 
39 | 770 |  |  | O=c1[nH]c2cc3cc(OCCCO)ccc3nc2[nH]1 | 
40 | 8 |  |  | CN(C(=O)CCCCOc1ccc2nc3[nH]c(=O)[nH]c3cc2c1)C1CCCCC1 | 
41 | 950 |  |  | CC(=O)OCCCCOc1ccc2nc3[nH]c(=O)[nH]c3cc2c1 | 
42 |  | 190 |  | CN(C)C(=O)CCCOc1ccc2nc3[nH]c(=O)[nH]c3cc2c1 | 
43 | 330 |  |  | CC(=O)OCCCOc1ccc2nc3[nH]c(=O)[nH]c3cc2c1 | 
44 | 70 | 1220 |  | CN(C(=O)CCCOc1ccc2nc3[nH]c(=O)n(C)c3cc2c1)C1CCCCCC1 | 
45 |  | 1 | 5 | CN(C(=O)CCCCOc1ccc2nc3[nH]c(=O)[nH]c3cc2c1)C1CCCCCC1 | 
46 | 90 |  |  | COC(=O)CCCCCOc1ccc2nc3[nH]c(=O)[nH]c3cc2c1 | 
47 | 180 | 7840 |  | Cn1c(=O)[nH]c2nc3ccc(OCCCC(=O)NC4CCCCC4)cc3cc21 | 
48 | 20 |  |  | CCOC(=O)CN(C(=O)CCCOc1ccc2nc3[nH]c(=O)[nH]c3cc2c1)C1CCCCC1 | 
49 |  | 540 | 140 | CN(C(=O)CCCCOc1ccc2nc3[nH]c(=O)n(C)c3cc2c1)C1CCCCCC1 | 

Row | EC50 [1] [nM] | EC50 [2] [nM] | EC50 [3] [nM] | SMILES | also measured
50 | 50 |  |  | CN(C(=O)CCCOc1ccc2nc3[nH]c(=O)n(C)c3cc2c1)C1CCCCC1 | 
51 | 3170 |  |  | O=C(O)CCCCCOc1ccc2nc3[nH]c(=O)[nH]c3cc2c1 | 
52 |  | 9600 | 910 | O=C(O)CN(C(=O)CCCOc1ccc2nc3[nH]c(=O)[nH]c3cc2c1)C1CCCCC1 | 
53 | 60 |  |  | CN(C(=O)CCCOc1ccc2nc3[nH]c(=O)[nH]c3cc2c1)C1CCCCCC1 | 
54 | 40 |  |  | O=C(CCCOc1ccc2nc3[nH]c(=O)[nH]c3cc2c1)NC1CCCCC1 | 
55 |  | 540 | 20 | CN(C(=O)CCCCCOc1ccc2nc3[nH]c(=O)[nH]c3cc2c1)C1CCCCC1 | 
56 |  | 38 | 630 | CCOC(=O)CCCOc1ccc2nc3[nH]c(=O)[nH]c3cc2c1 | 
57 | 1320 |  |  | N#CCCCCOc1ccc2nc3[nH]c(=O)[nH]c3cc2c1 | 
58 |  | 45300 | 380 | O=C(O)C1CCN(C(=O)CCCOc2ccc3nc4[nH]c(=O)[nH]c4cc3c2)CC1 | 
59 | 420 |  |  | O=C(CCCOc1ccc2nc3[nH]c(=O)[nH]c3cc2c1)NC1CCCC1 | 
60 |  | 1100 | 210 | CN(C(=O)CCCCc1ccc2nc3[nH]c(=O)[nH]c3cc2c1)C1CCCCC1 | 
61 | 150 |  |  | CN(C(=O)CCCCOc1ccc2nc3[nH]c(=O)n(C)c3cc2c1)C1CCCCC1 | 
62 |  | 7 |  | CN(C(=O)CCCOc1ccc2nc3[nH]c(=O)[nH]c3cc2c1)C1CCCCC1 | 
63 | 950 |  |  | COC(=O)CCCCOc1ccc2nc3[nH]c(=O)[nH]c3cc2c1 | 
64 | 6040 | 3020 |  | NC(=O)CCCOc1ccc2nc3[nH]c(=O)[nH]c3cc2c1 | 
65 | 210 |  |  | CCOC(=O)C1CCN(C(=O)CCCOc2ccc3nc4[nH]c(=O)[nH]c4cc3c2)CC1 | 
66 |  | 16 | 390 | O=C(CCCOc1ccc2nc3[nH]c(=O)[nH]c3cc2c1)NC1CCCCCC1 | 

Reference: BindingDB's records for doi:10.1021/jm00092a019 (Bristol-Myers Squibb Pharmaceutical Research Institute, 1992)
